Assay results: patent US20080200392A1, “Methods for Treating Parkinson's Disease” (priority 2005, published 2008)
No end group written: not given here.

Columns and labels:
human C1q = experiment: Reverse ELISA: inhibition of PAP immune complex binding to C1q coated plates; settings: for OD 405 nm: PAP pre-incubated 1 h with peptide or C1q, 30 min on C1q coated plates, lower OD = more inhibition, positive control 2.355; for inhibition of C1q binding, ranking in words: among the peptides of Table 1
From the text: (§1) For this reason, a “reverse ELISA” technique was used to assess binding of the Fc region to ligands that bind to immune complexed IgG Fc. In a reverse ELISA, the enzyme (e.g., HRP) is not covalently conjugated to the Fc portion of the secondary antibody. Rather, a preformed immune complex of peroxidase-rabbit (or mouse) anti-peroxidase IgG (“PAP” complex) is used. […] In these experiments, an Fc CH2-CH3 cleft binding ligand (e.g., purified human C1q) was bound to microwell plates. In the absence of competitor, PAP complexes bound to the immobilized ligand and the reaction between HRP and its substrate produced a signal. This signal was reduced by polypeptides and compounds provided herein that inhibited PAP binding to the immobilized ligand.
PAP complexes were formed mixing 2 μl of rabbit anti-peroxidase (Sigma Chemicals, St. Louis, Mo.) with 50 μl of peroxidase (Sigma-Aldrich, St. Louis, Mo.) in 1 ml distilled water. PAP (100 μl) were pre-incubated with 100 μl of peptide for one hour, 100 μl were pre-incubated with 100 μl of peptide or human C1q (Quidel Corp., San Diego, Calif.) for one hour. The C1q/PAP and peptide/PAP mixtures (100 μl) were incubated with C1q coated plates for 30 minutes. After washing, plates were incubated with ATBS (Quidel Corp.) for 15 minutes and read at 405 nm.

FcγIIa = experiment: Reverse ELISA: inhibition of PAP immune complex binding to FcγIIa coated plates; settings: PAP pre-incubated 1 h with peptide, 1 h on FcγIIa coated plates; lower = more inhibition; positive control 1.599
From the text: as §1
(§2) Once the reverse ELISA protocol was established using the C1q assay, the assay was redesigned using FcγIIa, FcγIIb, and FcγIII in place of C1q. Highly purified FcγIIa, FcγIIb and FcγIII were immunoabsorbed onto plastic microwells. After optimizing the FcγR reverse ELISA system, simple competitive inhibition experiments using polypeptides provided herein were conducted to investigate their ability to inhibit binding of immune complexes to purified FcγR.
(§3) Falcon microtiter plates were coated with 1:10 dilutions of highly purified FcγIIa, FcγIIb and FcγIII and incubated for 24 hours. The plates were washed and then blocked with 5×BSA blocking solution (Alpha Diagnostic International, San Antonio, Tex.) for 24 hours. PAP immune complexes were formed as described above. PAP (100 μl) were pre-incubated with 100 μl of peptide for one hour. PAP/peptide mixtures were added to the FcγR coated plates and incubated for one hour. After washing, plates were incubated with ABTS substrate for 15 minutes and read at 405 nm.

FcγIIb = experiment: Reverse ELISA: inhibition of PAP immune complex binding to FcγIIb coated plates; settings: PAP pre-incubated 1 h with peptide, 1 h on FcγIIb coated plates; lower = more inhibition; positive control 1.394
From the text: as §1, §2, §3

FcγIII = experiment: Reverse ELISA: inhibition of PAP immune complex binding to FcγIII coated plates; settings: PAP pre-incubated 1 h with peptide, 1 h on FcγIII coated plates; lower = more inhibition; positive control 1.588
From the text: as §1, §2, §3

FcR = experiment: FcγR reverse ELISA, overall statement on FcR binding to PAP; settings: among the peptides of Table 2
Procedure: as §2, §3

IgG Fc = IgG Fc (Homo sapiens, UniProt P01857); experiment: Alanine substitution effect on binding of SEQ ID NO:16 to IgG Fc; settings: alanine substitution of SEQ ID NO:16 Val-13 or Trp-14
From the text: The indole ring of Trp-14 in SEQ ID NO:16 has a hydrophobic interaction with IgG Fc His-435. SEQ ID NO:16 also has hydrophobic packing with IgG Fc Met-252, Ile-253, Ser-254, His-435, and Tyr-436. Alanine substitution of IgG Fc Asn-434, His-435, or Tyr-436 disrupts binding (ΔΔG≧1.5 kcal/mol). Similarly, alanine substitution of SEQ ID NO:16 Val-13 or Trp-14 results in disruption of binding (ΔΔG≧2.0 kcal/mol).

human wt α-synuclein = experiment: Reverse ELISA: inhibition of immune complexed IgG (PAP) binding to wt α-synuclein; settings: for Wt α-synuclein (read at 405 nm): PAP pre-incubated 1 h with peptide
Procedure: PAP complexes were formed mixing 2 μl of rabbit anti-peroxidase (Sigma) with 50 μl of peroxidase (Sigma) in 1 ml distilled water. PAP (100 μl) were pre-incubated with 100 μl of peptide for one hour. Control PAP (200 μl) also was incubated for one hour. 100 μl of either PAP or PAP/peptide was added to Falcon microtiter plates that had been coated for 24 or 48 hours with 167 μg/ml human wt α-synuclein (Sigma-Aldrich), and the plates were incubated for 60 minutes. After washing, plates were incubated with ATBS for 30 minutes and then read at 405 nm.

highly purified FcγIIa = experiment: reverse ELISA: PAP without competitor on FcγIIa-coated plate
Sequence of highly purified FcγIIa (P12318 34-317): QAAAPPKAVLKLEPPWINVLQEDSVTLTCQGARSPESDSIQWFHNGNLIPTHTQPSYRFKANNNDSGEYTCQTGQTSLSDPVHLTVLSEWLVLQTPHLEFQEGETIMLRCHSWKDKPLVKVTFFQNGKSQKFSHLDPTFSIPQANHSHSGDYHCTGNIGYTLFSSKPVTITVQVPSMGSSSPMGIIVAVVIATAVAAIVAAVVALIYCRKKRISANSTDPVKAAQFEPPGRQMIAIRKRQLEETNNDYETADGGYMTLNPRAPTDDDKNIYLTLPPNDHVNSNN

highly purified FcγIII = experiment: reverse ELISA: PAP without competitor on FcγIII-coated plate
[1] = biological target: human wt α-synuclein (Sigma-Aldrich) (human) (UniProt P37840); experiment: reverse ELISA: PAP without competitor on α-synuclein-coated plate (taken as the 24 h coating)
highly purified FcγIIb = experiment: reverse ELISA: PAP without competitor on FcγIIb-coated plate
[2] = biological target: preformed immune complex of peroxidase-rabbit anti-peroxidase IgG (PAP complex) (rabbit; horseradish) (UniProt P00433); experiment: reverse ELISA competition: PAP pre-incubated with peptide, then on FcγIIa-coated plate (competitor: immobilized FcγIIa)
Sequence of preformed immune complex of peroxidase-rabbit anti-peroxidase IgG (PAP complex) (rabbit; horseradish) (P00433 31-338, one chain of several): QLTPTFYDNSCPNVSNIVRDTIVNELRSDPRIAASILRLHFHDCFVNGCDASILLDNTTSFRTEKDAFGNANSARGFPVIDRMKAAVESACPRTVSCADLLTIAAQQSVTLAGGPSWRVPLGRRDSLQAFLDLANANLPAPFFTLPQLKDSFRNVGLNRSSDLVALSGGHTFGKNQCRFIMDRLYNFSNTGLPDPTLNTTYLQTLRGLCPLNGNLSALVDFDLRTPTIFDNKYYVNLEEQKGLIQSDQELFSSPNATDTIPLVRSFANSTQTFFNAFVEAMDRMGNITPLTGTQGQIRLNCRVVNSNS

[3] = biological target: preformed immune complex of peroxidase-rabbit anti-peroxidase IgG (PAP complex) (rabbit; horseradish) (UniProt P00433); experiment: reverse ELISA competition: PAP pre-incubated with peptide, then on C1q-coated plate; signal is PAP bound to C1q (competitor: immobilized human C1q)
[4] = biological target: preformed immune complex of peroxidase-rabbit anti-peroxidase IgG (PAP complex) (rabbit; horseradish) (UniProt P00433); experiment: reverse ELISA competition: PAP pre-incubated with peptide, then on FcγIII-coated plate (competitor: immobilized FcγIII)
[5] = biological target: preformed immune complex of peroxidase-rabbit anti-peroxidase IgG (PAP complex) (rabbit; horseradish) (UniProt P00433); experiment: reverse ELISA competition: PAP pre-incubated with peptide, then on FcγIIb-coated plate (competitor: immobilized FcγIIb)
[6] = biological target: preformed immune complex of peroxidase-rabbit anti-peroxidase IgG (PAP complex) (rabbit; horseradish) (UniProt P00433); experiment: reverse ELISA competition: PAP pre-incubated with peptide, then on plate coated 48 h with human wt α-synuclein (competitor: immobilized α-synuclein)
[7] = biological target: preformed immune complex of peroxidase-rabbit anti-peroxidase IgG (PAP complex) (rabbit; horseradish) (UniProt P00433); experiment: reverse ELISA competition: PAP pre-incubated with peptide, then on plate coated 24 h with human wt α-synuclein (competitor: immobilized α-synuclein)
[8] = plates coated 24 h with 167 μg/ml α-synuclein, positive control 1.433
[9] = plates coated 48 h with 167 μg/ml α-synuclein, positive control […]

APPCAFHLGELVWCT (not fully specified; cysteine pairing not given here)
OD 405 nm (human C1q): 0.983
FcγIIa (read at 405 nm) (FcγIIa): 0.605
FcγIIb (read at 405 nm) (FcγIIb): 0.380
FcγIII (read at 405 nm) (FcγIII): 0.880

APPCARHLGELVWCT
OD 405 nm (human C1q): 0.567
inhibition of C1q binding, ranking in words (human C1q): next best result
FcγIIa (read at 405 nm) (FcγIIa): 0.956
FcγIIb (read at 405 nm) (FcγIIb): 0.768
FcγIII (read at 405 nm) (FcγIII): 0.709

APPCAWHLGELVWCT
OD 405 nm (human C1q): 1.148
FcγIIa (read at 405 nm) (FcγIIa): 0.658
FcγIIb (read at 405 nm) (FcγIIb): 0.562
FcγIII (read at 405 nm) (FcγIII): 0.530

APPDCAWHLGELVWCT
OD 405 nm (human C1q): 0.389
inhibition of C1q binding, ranking in words (human C1q): greatest inhibition of C1q binding, almost equaling C1q itself
inhibition of FcR binding to PAP, ranking in words (FcR): greatest inhibition of FcR binding to PAP
FcγIIa (read at 405 nm) (FcγIIa): 0.509
FcγIIb (read at 405 nm) (FcγIIb): 0.496
ΔΔG, disruption of binding (IgG Fc): ≥ 2.0 kcal/mol
inhibition of α-synuclein binding to PAP, ranking in words (human wt α-synuclein; among the peptides of Table 3): greatest inhibition of α-synuclein binding to PAP
Wt α-synuclein (read at 405 nm) (human wt α-synuclein; [8]): 0.088
Wt α-synuclein (read at 405 nm) (human wt α-synuclein; [9]): 0.136
FcγIII (read at 405 nm) (FcγIII): 0.670

DCAFHLGELVWCT
OD 405 nm (human C1q): 0.859
FcγIIa (read at 405 nm) (FcγIIa): 0.660
FcγIIb (read at 405 nm) (FcγIIb): 0.510
FcγIII (read at 405 nm) (FcγIII): 0.810

DCAWHLGELVWCT
OD 405 nm (human C1q): 1.100
FcγIIa (read at 405 nm) (FcγIIa): 0.561
FcγIIb (read at 405 nm) (FcγIIb): 0.532
Wt α-synuclein (read at 405 nm) (human wt α-synuclein; [8]): 0.111
Wt α-synuclein (read at 405 nm) (human wt α-synuclein; [9]): 0.152
FcγIII (read at 405 nm) (FcγIII): 0.741

preformed immune complex of peroxidase-rabbit anti-peroxidase IgG (PAP complex) (from UniProt P00433 31-338) (antibody)
OD 405 nm (highly purified FcγIIa): 1.6 OD 405 nm
OD 405 nm (highly purified FcγIII): 1.59 OD 405 nm
OD 405 nm [1]: 1.43 OD 405 nm
OD 405 nm (highly purified FcγIIb): 1.39 OD 405 nm

B1: … (SEQ ID NO:14) (peptide)
peptide: APPCARHLGELVWCT
modifications: not fully specified; cysteine pairing not given here
OD 405 nm [2]: 0.956 OD 405 nm
OD 405 nm [3]: 0.567 OD 405 nm
OD 405 nm [4]: 0.709 OD 405 nm
OD 405 nm [5]: 0.768 OD 405 nm

B2: … (SEQ ID NO:13) (peptide)
peptide: APPCAWHLGELVWCT
modifications: not fully specified; cysteine pairing not given here
OD 405 nm [2]: 0.658 OD 405 nm
OD 405 nm [3]: 1.15 OD 405 nm
OD 405 nm [4]: 0.53 OD 405 nm
OD 405 nm [5]: 0.562 OD 405 nm

B3: … (SEQ ID NO:3) (peptide)
peptide: DCAFHLGELVWCT
OD 405 nm [2]: 0.66 OD 405 nm
OD 405 nm [3]: 0.859 OD 405 nm
OD 405 nm [4]: 0.81 OD 405 nm
OD 405 nm [5]: 0.51 OD 405 nm

B4: … (SEQ ID NO:16) (peptide)
peptide: APPDCAWHLGELVWCT
OD 405 nm [2]: 0.509 OD 405 nm
OD 405 nm [6]: 0.136 OD 405 nm
OD 405 nm [7]: 0.088 OD 405 nm
OD 405 nm [3]: 0.389 OD 405 nm
OD 405 nm [4]: 0.67 OD 405 nm
OD 405 nm [5]: 0.496 OD 405 nm

B5: … (SEQ ID NO:15) (peptide)
peptide: APPCAFHLGELVWCT
modifications: not fully specified; cysteine pairing not given here
OD 405 nm [2]: 0.605 OD 405 nm
OD 405 nm [3]: 0.983 OD 405 nm
OD 405 nm [4]: 0.88 OD 405 nm
OD 405 nm [5]: 0.38 OD 405 nm
